Experiments:
[1] = tested on: MDA-MB-231-mCherry breast cancer cells; format: cell-based, human; conditions: triple negative breast cancer; MTS after 72 hours; ±SD
Experimental: (§1) The MDA-MB-231-mCherry breast cancer cells were cultured in Dulbecco's modified Eagle's medium (DMEM) and supplemented with 5% heat-inactivated fetal bovine serum (FBS), 50 units/ml penicillin, 50 μg/ml streptomycin, 2 mM L-glutamine, and 1 μg/ml blasticidin S (Sigma). The A2780 and A2780^CP ovarian cancer cell lines and the multiple myeloma RPMI 8226 cell line were cultured in RPMI 1640 medium supplemented with 10% FBS, 50 units/ml penicillin, 50 μg/ml streptomycin, 2 mM L-glutamine. The U-87 and HTC-116 cancer cell lines were cultured without antibiotics. Cells were grown at 37° C. in a humidified atmosphere of 5% of CO2.
(§2) B. In Vitro Cytotoxicity Assay for MDA-MB-231mCherry, A270 and A2780CP Cancer Cell Lines.
(§3) The cytotoxicities of compound (1), cisplatin, and As2O3 were assessed by MTS assay using the CellTiter 96 Aqueous MTS (Promega). The 100 μL aliquots of cell suspension (1.0×10^5 cells/ml) were plated in 96-well tissue culture plates in the incubator overnight at 37° C. in a humidified atmosphere of 5% of CO2. The serial dilutions of compound (1), cisplatin, and As2O3 in appropriate media were transferred to the cells. The MTS solution (20 μL) was added after 72 hours and the absorbance was measured at 495 nm 4 hours later. Sigmoidal dose response curves were plotted using the GraphPad Prism software. The IC50 values were obtained on at least three independent experiments. In vitro cytotoxicity assay for U-87 and HTC-116 cancer cell line. For the experiment, cells were cultured in RPMI 1640 medium with 5% FBS and 2 mM L-glutamine. […] HCT-116 and U-87 cancer cell were plated in 96 well plates. The cells were plated in four replicates. The densities of the cells were 5000 and 10000 per well in 90 μL for HTC-116 and U-87, respectively. […] The cells were treated with 100, 10, 1, 0.1 0.01, 0.001, 0.0001, 0.00001 and 0.000001 μM of compound (1), cisplatin, and As2O3. After 48 hours post drug treatment all plates were allowed to equilibrate for 30 minutes at room temperature from incubator. Addition of 100 μL of Cell Titer Glow (Promega, Fitchburg, Wis.) reagent was added to the wells. The plates were shaken for 2 minutes and allowed to sit for activation prior to reading for 10 minutes. Plates were read on Biotek Synergy H1 (Biotek, Wenooski, Vt.) reader capable of luminescence detection.

[2] = tested on: A2780^CP ovarian cancer cell line (cisplatin resistant); format: cell-based, human; conditions: for IC50: ovarian cisplatin resistant, MTS after 72 hours, ±SD
Experimental: as §1, §2, §3

[3] = tested on: A2780 ovarian cancer cell line (cisplatin sensitive); test: In vitro cytotoxicity assay (MTS), A2780; format: cell-based, human; conditions: MTS after 72 hours, ±SD
Experimental: as §1, §2
as §3, with “After 48 hours post drug treatment all plates were allowed to equilibrate for 30 minutes at room temperature from incubator. Addition of 100 μL of Cell Titer Glow (Promega, Fitchburg, Wis.) reagent was added to the wells.” left out

[4] = tested on: multiple myeloma RPMI 8226 cell line; format: cell-based, human; conditions: ±SD
Experimental: as §1, §3

glioblastoma U-87 cells = format: cell-based, human; conditions: Cell Titer Glow, 48 hours post drug treatment, ±SD
Experimental: as §1, §3

colon HCT-116 cells = format: cell-based, human; conditions: Cell Titer Glow, 48 hours post drug treatment, ±SD, read-out: IC50 values in μM (±SD), HTC−116
Experimental: as §1, §3

[5] = Solubility of the isolated complex; format: physicochemical
Experimental: Cisplatin (300 mg, 1.00 mmol) or K2[PtCl4] (415 mg, 1.00 mmol) was added to 125 cm^3 of 9:1 CH3CN/H2O (v/v). The mixture was stirred at 90° C. Once the platinum compound was dissolved, 396 mg As2O3(2.00 mmol) was added to the solution, and the reaction mixture was stirred at 90° C. for 72 hours. The resulting mixture was filtered, and the filtrate was left at room temperature in a glass beaker for approximately 4 weeks until crystals formed. Crystals suitable for a single crystal X-ray analysis were retrieved from solution. The solution was filtered, washed with CH3CN:H2O (9:1 mixture), and the obtained crystals were dried in a dessicator. Yield 350 mg product (75%; 23% when cisplatin is used). […] Elemental analysis (% calcd., found for C7H18.5AsClN3.5O6Pt): C (15.20, 15.24), H (3.37, 3.36), N (8.86, 8.69). NMR: ^1H NMR (600 MHz, [D6]DMSO, 25° C.) δ: 8.91 (s, 2H—OH), 8.15 (s, 2H—NH), 2.13 (s, 6H—CH3). ^13C NMR (150 MHz, [D6]DMSO, 25° C.): δ 172.1 (C-1, C-3), 171.4 (C-5, C-7), 22.5 (C-6, C-8), 16.6 (C-2, C-4). ^15N NMR (60 MHz, from the ^1H-^15N HSQC, [D6]DMSO, referenced to ^15NH4Cl, 25° C.): δ 106.4 (N-1, N-2), ^195Pt NMR (129 MHz, [D6]DMSO, 25° C.), δ: −3589 (s, 1Pt) ppm. UV/Vis ((methanol-water=1:1): λ1=283 nm (ε=4062 dm^3 mol^−1 cm^−1), λ2=247 nm (ε=3621 dm^3 mol^−1 cm^−1), sh. 260 nm.
LC/ESI-MS data were recorded every 24 hours. The color gradually turned yellow and ultimately colorless over the 4 day period. The resulting mixture was filtered and left to sit (pH roughly 2) at 25° C., and, within a week, crystals suitable for single crystal X-ray analysis appeared. The solution was filtered again, washed with H2O, dried, and weighed (212 mg 44%).
Compound (1) obtained in Example 2 (100 mg 0.18 mmol) was dissolved in 4 cm^3 of methanol and added to an equal-molar solution of KSCN (17.6 mg 0.180 mmol) in 4 cm^3 of water. The reaction mixture was allowed to stir at 50° C. for 5 hours. The mixture was filtered and the solution was left standing at room temperature until crystals appeared. The obtained crystals were removed by filtration. Yield: 60.00 mg (52%). Elemental analysis (% calcd., found for PtC5H10N3O4SAs): C (12.56, 12.37), H (2.11, 1.97), N (8.78, 8.56). NMR data: ^1H NMR (600 MHz, [D6]DMSO): δ 2.21 (s, 6H, CH3), 7.70 (s, 2H, NH), 9.20 (s, 2H, OH). ^13C NMR (150 MHz, [D6]DMSO) δ 17.5 (CH3), 117.7 (SCN), 172.6 (CO); ^195Pt NMR (129 MHz, [D6]DMSO) δ −3861 ppm (s, 1Pt); UV/Vis (methanol-water=1:1): λ1=285 nm (ε=4217 dm^3 mol^−1 cm^−1); λ2=225 nm (ε=15919 dm^3 mol^−1 cm^−1), shoulder at 265 nm.

[6] = Linkage isomerization in [D6]DMSO solution by NMR; format: physicochemical; conditions: compound (5) dissolved in [D6]DMSO, room temperature; S-isomer = compound (5), N-isomer = compound (6)
Description: Solution NMR and X-ray crystallography confirm that the Pt—As bond remained intact. Crystals suitable for a single crystal X-ray analysis were obtained when compound (5) was synthesized in a 1:1 water/methanol mixture, where the SCN^− ion is bound to Pt(II) through the sulfur atom (FIG. 1D). […] Assignments of chemical shifts for the S- and N-bound isomers signals are based on multidimensional ^195Pt and ^15N NMR spectroscopy on sample of compound (5) which is synthesized using thiocyanate enriched in ^13C and ^15N at 99% (FIG. 2).
Cisplatin, K2[PtCl4], DMSO, methanol, acetonitrile, propionitrile and As2O3 were purchased from Sigma-Aldrich and used without further purification. Media for the cell cultures and all other cell supplements were purchased from Invitrogen. The following spectrometers were used: NMR: Bruker Avance-III 600 and 500 MHz; chemical shifts (^1H, ^13C) were referenced to tetramethylsilane at 0.000 ppm ^1H and ^13C if it was present, and to residual solvent signal for samples in which TMS was absent (for [D6]DMSO, δH=2.50 ppm and δC=39.5 ppm). […] UV/Vis electron absorbance measurements were performed on a Perkin Elmer Lambda 650 spectrophotometer. […]

[7] = tested on: panel of human cancer cell lines; test: Anticancer activity in a panel of human cancer cell lines; format: cell-based
Experimental: as §1
The cytotoxicities of compound (1), cisplatin, and As2O3 were assessed by MTS assay using the CellTiter 96 Aqueous MTS (Promega). The 100 μL aliquots of cell suspension (1.0×10^5 cells/ml) were plated in 96-well tissue culture plates in the incubator overnight at 37° C. in a humidified atmosphere of 5% of CO2. The serial dilutions of compound (1), cisplatin, and As2O3 in appropriate media were transferred to the cells. The MTS solution (20 μL) was added after 72 hours and the absorbance was measured at 495 nm 4 hours later. […] The plates were shaken for 2 minutes and allowed to sit for activation prior to reading for 10 minutes. Plates were read on Biotek Synergy H1 (Biotek, Wenooski, Vt.) reader capable of luminescence detection.

For arsenic trioxide [As2O3], the IC50 [1] was 11.9 ± 2.3 µM, the IC50 [2] was 21.6 ± 1.4 µM and the IC50 [3] was 17.1 ± 1.5 µM. For the same compound, the IC50 [4] was 7.1 ± 0.2 µM, the IC50 (glioblastoma U-87 cells) was 1.6 ± 2.9 µM and the IC50 (colon HCT-116 cells) was 9.4 ± 0.9 µM.
For “[Pt(μ-NHC(CH3)O)2(SCN)As(OH)2] [Compound (5)]”, the “solubility in organic solvents” value [5] was “DMSO and methanol” and the “share of isomer in equilibrium mixture” value [6] was 64±1.2%.
Work on `N.N.[Cl][Pt][Cl]` [Cisplatin, Cis-diamminedichloroplatinum(II)] yielded an IC50 [1] of 22.3 ± 2.8 µM, an IC50 [2] of 47.3 ± 2.1 µM and an IC50 [3] of 3.1 ± 1.1 µM. The IC50 [4] was 1.9 ± 0.1 µM, the IC50 (glioblastoma U-87 cells) was 9.6 ± 0.8 µM and the IC50 (colon HCT-116 cells) was 5.5 ± 1.3 µM.
In the case of “[Pt(μ-NHC(CH3)O)2(NCS)As(OH)2] [Compound (6)]”, the “share of isomer in equilibrium mixture” value [6] is reported as 36%.
For “[Pt(μ-NHC(CH3)O)2ClAs(OH)2] [Compound (1)]”, the IC50 [1] was 9.5 ± 0.1 µM, the “resistance factor (RF)” value ([2]; ovarian A2780 and A2780^CP cell lines, RF value of <2 denotes no cross-resistance) was 1.1 and the IC50 [2] was 21.4 ± 1.8 µM. For the same compound, the “solubility in organic solvents” value [5] was “soluble in DMSO, methanol, ethanol”, the solubility in water [5] was “partially in water” and the IC50 [3] was 20.3 ± 4 µM. The “anticancer activity in a panel of human cancer cell lines” value [7] was “significant anticancer activity”, the IC50 [4] was 4.5 ± 1 µM and the IC50 (glioblastoma U-87 cells) was 0.37 ± 0.11 µM. It also gave an IC50 (colon HCT-116 cells) of 1.6 ± 0.4 µM.
For “[Pt(μ-NHC(CH3CH2)O)2ClAs(OH)2] [Compound (2)]”, the “solubility in organic solvents” value [5] was “soluble in methanol, DMSO”, the solubility in water [5] was “partially soluble in H2O” and the “anticancer activity in a panel of human cancer cell lines” value [7] was “significant anticancer activity”.
